Laboratory results taken from ChEMBL document CHEMBL6115018, “MrgX2-Targeting Ligand Screen for Antipseudoallergic Agents by Immobilized His-Tag-Fused Protein Technology” (J Med Chem, 2025).
Calls of active or inactive are those of the source. No cut-off for these calls is given here.

What was measured:
[1] = test system: LAD2; experiment: Anti-pseudoallergic activity in human LAD2 cells assessed as inhibition of SP-induced histamine release preincubated for 30 mins followed by SP addition and measured after 30 mins by UHPLC-ESI-MS/MS analysis; type: functional, cell-based; conditions: dose 1-10 µM, time 60.0 min
[2] = Cytotoxicity against human LAD2 cells assessed as cell viability incubated for 24 hrs by CCK8 assay relative to control; type: toxicity, cell-based; conditions: read-out: Activity
[3] = test system: LAD2; experiment: Anti-pseudoallergic activity in human LAD2 cells assessed as inhibition of SP-induced beta-aminohexosidase release at 50 uM preincubated for 30 mins followed by SP addition and measured after 30 mins by absorbance based microplate reader analysis relative to control; type: functional; conditions: LAD2, 1 h, time 60 min
[4] = test system: LAD2; experiment: Anti-pseudoallergic activity in human LAD2 cells assessed as inhibition of SP-induced beta-aminohexosidase release preincubated for 30 mins followed by SP addition and measured after 30 mins by absorbance based microplate reader analysis; type: functional, cell-based
[5] = test system: LAD2; experiment: Anti-pseudoallergic activity in human LAD2 cells assessed as inhibition of C48/80-induced beta-aminohexosidase release preincubated for 30 mins followed by SP addition and measured after 30 mins by absorbance based microplate reader analysis; type: functional, cell-based
[6] = test system: LAD2; experiment: Anti-pseudoallergic activity in human LAD2 cells assessed as inhibition of SP-induced TNF-alpha release incubated for 6 hrs by ELISA analysis; type: functional, cell-based; conditions: dose 1-10 µM
[7] = test system: Mus musculus; experiment: Anti-pseudoallergic activity in C48/80-induced male C57BL/6 mouse model assessed as reduction in paw thickness at 0.5 to 1.0 mg/mL administered via gavage for 2 hrs by vernier caliper based analysis; type: functional, organism-based; conditions: dose 0.5-1 mg/ml
[8] = test system: Mus musculus; experiment: Anti-pseudoallergic activity in C48/80-induced male C57BL/6 mouse model assessed as reduction in evans blue extravasation at 1.0 mg/mL administered via gavage for 2 hrs by absorbance based assay; type: functional, organism-based
[9] = test system: Mus musculus; experiment: Anti-pseudoallergic activity in C48/80-induced male C57BL/6 mouse model assessed as reduction in mast cell degranulation at 1 mg/mL administered via gavage for 2 hrs by Toluidine blue staining based analysis; type: functional, organism-based
[10] = test system: Mus musculus; experiment: Anti-pseudoallergic activity in C48/80-induced male C57BL/6 mouse model assessed as reduction in serum histamine release at 1 to 10 mg/kg, preadministered with compound via gavage for 2 hrs followed by C48/80 administration and measured after 1 hrs by UHPLC-ESI-MS/MS analysis; type: functional, organism-based; conditions: dose 1-10 mg/kg, time 3.0 hrs
[11] = biological target: T1, Mas-related G-protein coupled receptor member X2 (Homo sapiens) (UniProt Q96LB1); experiment: Competitive binding affinity to MrgX2 (unknown origin) assessed as retention time of compound at 2 x 10^-8mol/L by zonal elution method (reference value: 58.73 min); conditions: dose 2.0 10^-8mol/L
T1 sequence (whole entry): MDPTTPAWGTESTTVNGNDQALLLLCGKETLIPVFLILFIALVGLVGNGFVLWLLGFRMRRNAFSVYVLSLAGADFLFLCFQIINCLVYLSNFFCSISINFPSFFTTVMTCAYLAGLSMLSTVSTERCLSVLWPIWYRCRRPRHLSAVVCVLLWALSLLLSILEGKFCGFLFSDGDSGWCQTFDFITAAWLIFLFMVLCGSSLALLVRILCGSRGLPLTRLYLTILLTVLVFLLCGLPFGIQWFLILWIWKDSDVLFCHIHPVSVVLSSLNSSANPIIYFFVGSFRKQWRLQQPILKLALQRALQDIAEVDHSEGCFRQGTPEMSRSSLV

[12] = biological target: T1, Mas-related G-protein coupled receptor member X2 (Homo sapiens); experiment: Competitive binding affinity to MrgX2 (unknown origin) assessed as retention time of compound at 4 x 10^-8mol/L by zonal elution method (reference value: 58.73 min); conditions: dose 4.0 10^-8mol/L
[13] = biological target: T1, Mas-related G-protein coupled receptor member X2 (Homo sapiens); experiment: Competitive binding affinity to MrgX2 (unknown origin) assessed as retention time of compound at 8 x 10^-8mol/L by zonal elution method (reference value: 58.73 min); conditions: dose 8.0 10^-8mol/L
[14] = biological target: T1, Mas-related G-protein coupled receptor member X2 (Homo sapiens); experiment: Competitive binding affinity to MrgX2 (unknown origin) assessed as retention time of compound at 1 x 10^-7mol/L by zonal elution method (reference value: 58.73 min); conditions: dose 1.0 10^-7mol/L

IC50 [4] [µM] | IC50 [5] [µM] | Retention time [11] [min] | Retention time [12] [min] | Retention time [13] [min] | Retention time [14] [min] | SMILES | Activity [1] | viability at 24 h [2] [%] | inhibition at 50 µM [3] [%] | Activity ([4]; time 60.0 min) | Activity ([5]; time 60.0 min) | Activity [6] | Activity [7] | Activity [8] | Activity [9] | Activity [10]
4.9 | 6.18 | – | – | – | – | O=C(CSc1nnc(-c2ccccc2)c(-c2ccccc2)n1)Nc1ccc(Cl)cc1Cl | Dose-dependent-effect | > 85 | 75 | Dose-dependent-effect | Dose-dependent-effect | Dose-dependent-effect | Active | Active | Active | Active
– | – | 56.1 | 46.3 | 29.2 | 23.7 | CN(C)[C@@H]1CCN(c2cc(-c3ccccc3)nc3ccnn23)C1 | – | – | – | – | – | – | – | – | – | –
